Measurements reported in publication PMC7933434, “Entropy-driven binding of gut bacterial β-glucuronidase inhibitors ameliorates irinotecan-induced toxicity” (Communications Biology, 2021).
Where “and” joins values, the source holds several entries; their conditions need not be identical. Equal values may be shown once. Read-outs that look alike come from different tables or passages of the source.

What was measured:
[1] = biological target: BdGUS (Bifidobacterium dentium GUS) (Bifidobacterium dentium, UniProt D2Q7B1); experiment: biochemical; set-up: GUS activity (hydrolysis rate of MUG) / 1/v: unit not given here
[2] = biological target: LgGUS (Lactobacillus gasseri GUS) (Lactobacillus gasseri, UniProt Q9AHJ8); experiment: GUS inhibition assay, hydrolysis of 4-methylumbelliferyl-β-glucuronide, LgGUS; format: biochemical; settings: LgGUS; 50 mM sodium acetate pH 4.5, 37 °C
[3] = biological target: EcGUS (Escherichia coli GUS) (Escherichia coli, UniProt P05804); experiment: biochemical
[4] = biological target: EcGUS (Escherichia coli, UniProt P05804); experiment: Isothermal titration calorimetry, EcGUS; format: binding; settings: EcGUS, 298 K
[5] = [Inhibitor 1] = 6.25 nM, [MUG] 0.375 mM
[6] = [Inhibitor 1] = 6.25 nM, [MUG] 0.75 mM
[7] = [Inhibitor 1] = 6.25 nM, [MUG] 1.5 mM
[8] = [Inhibitor 1] = 6.25 nM, [MUG] 3 mM
[9] = [Inhibitor 1] = 12.5 nM, [MUG] 0.375 mM
[10] = [Inhibitor 1] = 12.5 nM, [MUG] 0.75 mM
[11] = [Inhibitor 1] = 12.5 nM, [MUG] 1.5 mM
[12] = [Inhibitor 1] = 12.5 nM, [MUG] 3 mM
[13] = [Inhibitor 1] = 25 nM, [MUG] 0.375 mM
[14] = [Inhibitor 1] = 25 nM, [MUG] 0.75 mM
[15] = [Inhibitor 1] = 25 nM, [MUG] 1.5 mM
[16] = [Inhibitor 1] = 25 nM, [MUG] 3 mM
[17] = [Inhibitor1] = 50 nM, [MUG] 0.375 mM
[18] = [Inhibitor1] = 50 nM, [MUG] 0.75 mM
[19] = [Inhibitor1] = 50 nM, [MUG] 1.5 mM
[20] = [Inhibitor1] = 50 nM, [MUG] 3 mM
[21] = Tris buffer (250 mM NaCl, 20 mM Tris, pH 8.0)
[22] = phosphate buffer (250 mM NaCl, 20 mM KH2PO4, 100 mM Na2HPO4, pH 8.0)

Chain of EcGUS (P05804 whole entry): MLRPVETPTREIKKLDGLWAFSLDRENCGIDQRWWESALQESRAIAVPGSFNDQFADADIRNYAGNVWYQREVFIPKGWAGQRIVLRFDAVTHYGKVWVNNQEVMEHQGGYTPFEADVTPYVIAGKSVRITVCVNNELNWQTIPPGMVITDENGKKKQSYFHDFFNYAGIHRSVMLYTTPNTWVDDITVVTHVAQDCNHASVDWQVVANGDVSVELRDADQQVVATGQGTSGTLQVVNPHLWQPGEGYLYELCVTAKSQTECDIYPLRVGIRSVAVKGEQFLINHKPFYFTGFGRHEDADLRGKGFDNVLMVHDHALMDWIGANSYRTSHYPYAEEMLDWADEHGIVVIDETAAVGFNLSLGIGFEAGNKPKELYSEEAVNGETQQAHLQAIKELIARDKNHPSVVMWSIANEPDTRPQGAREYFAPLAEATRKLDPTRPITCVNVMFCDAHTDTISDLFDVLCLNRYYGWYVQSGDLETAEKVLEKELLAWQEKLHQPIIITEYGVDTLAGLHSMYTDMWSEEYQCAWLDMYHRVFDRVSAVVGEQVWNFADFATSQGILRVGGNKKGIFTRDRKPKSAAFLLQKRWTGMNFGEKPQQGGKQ
Chain of EcGUS (Escherichia coli GUS) (P05804 whole entry): as above
Chain of BdGUS (Bifidobacterium dentium GUS) (D2Q7B1 1-668): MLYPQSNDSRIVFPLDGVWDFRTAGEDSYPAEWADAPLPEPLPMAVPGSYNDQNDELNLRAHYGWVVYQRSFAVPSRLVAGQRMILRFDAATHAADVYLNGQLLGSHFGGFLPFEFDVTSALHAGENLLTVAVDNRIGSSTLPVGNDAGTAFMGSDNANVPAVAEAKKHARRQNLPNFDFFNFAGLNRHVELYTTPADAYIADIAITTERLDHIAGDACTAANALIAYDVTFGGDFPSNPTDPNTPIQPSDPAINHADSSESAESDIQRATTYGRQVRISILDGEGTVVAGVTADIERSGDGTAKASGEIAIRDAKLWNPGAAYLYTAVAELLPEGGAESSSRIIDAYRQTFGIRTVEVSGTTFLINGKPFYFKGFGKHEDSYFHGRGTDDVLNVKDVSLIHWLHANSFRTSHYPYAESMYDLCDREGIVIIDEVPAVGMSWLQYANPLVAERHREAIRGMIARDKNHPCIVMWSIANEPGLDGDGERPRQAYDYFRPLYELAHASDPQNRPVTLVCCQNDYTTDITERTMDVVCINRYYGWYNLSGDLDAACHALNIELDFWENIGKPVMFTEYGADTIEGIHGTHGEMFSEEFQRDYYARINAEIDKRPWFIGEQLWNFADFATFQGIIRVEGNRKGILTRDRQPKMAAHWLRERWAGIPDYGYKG
Chain of LgGUS (Lactobacillus gasseri GUS) (Q9AHJ8 1-598): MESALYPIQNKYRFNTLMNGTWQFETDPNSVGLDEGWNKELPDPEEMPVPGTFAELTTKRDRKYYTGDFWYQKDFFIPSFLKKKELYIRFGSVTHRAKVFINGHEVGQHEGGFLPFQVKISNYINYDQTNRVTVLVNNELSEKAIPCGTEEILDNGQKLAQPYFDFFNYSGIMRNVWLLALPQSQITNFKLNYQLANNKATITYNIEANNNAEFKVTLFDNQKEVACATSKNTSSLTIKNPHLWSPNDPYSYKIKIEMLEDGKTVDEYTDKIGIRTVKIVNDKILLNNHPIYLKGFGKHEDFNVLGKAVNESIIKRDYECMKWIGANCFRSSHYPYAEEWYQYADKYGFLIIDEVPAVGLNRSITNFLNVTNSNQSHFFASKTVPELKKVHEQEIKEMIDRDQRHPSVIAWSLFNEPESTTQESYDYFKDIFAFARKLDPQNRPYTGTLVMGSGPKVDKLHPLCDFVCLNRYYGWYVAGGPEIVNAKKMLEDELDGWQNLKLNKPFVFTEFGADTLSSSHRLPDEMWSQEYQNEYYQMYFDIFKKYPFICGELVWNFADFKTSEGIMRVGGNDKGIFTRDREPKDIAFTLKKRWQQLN

O=C(O)[C@H]1CNC[C@@H](O)[C@@H]1O [Inhibitor 1, Uronic isofagomine]
Ki ([1]; BdGUS): 7.4 nM
1/v [1, 5]: 0.8126 and 0.846 and 0.7526
GUS activity (hydrolysis rate of MUG) [1, 5]: 0.2748 and 0.264 and 0.2967
1/v [1, 6]: 0.5186 and 0.5024 and 0.468
GUS activity (hydrolysis rate of MUG) [1, 6]: 0.4306 and 0.4444 and 0.4771
1/v [1, 7]: 0.3591 and 0.3484 and 0.3239
GUS activity (hydrolysis rate of MUG) [1, 7]: 0.6217 and 0.6409 and 0.6893
1/v [1, 8]: 0.2793 and 0.2899 and 0.2702
GUS activity (hydrolysis rate of MUG) [1, 8]: 0.7996 and 0.7703 and 0.8263
1/v [1, 9]: 1.155 and 1.089 and 1.043
GUS activity (hydrolysis rate of MUG) [1, 9]: 0.1934 and 0.2051 and 0.2141
1/v [1, 10]: 0.6535 and 0.6591 and 0.6116
GUS activity (hydrolysis rate of MUG) [1, 10]: 0.3417 and 0.3388 and 0.3651
1/v [1, 11]: 0.4306 and 0.4268 and 0.4023
GUS activity (hydrolysis rate of MUG) [1, 11]: 0.5186 and 0.5232 and 0.555
1/v [1, 12]: 0.3354 and 0.3372 and 0.306
GUS activity (hydrolysis rate of MUG) [1, 12]: 0.6657 and 0.6621 and 0.7298
1/v [1, 13]: 1.814 and 1.753 and 1.625
GUS activity (hydrolysis rate of MUG) [1, 13]: 0.1231 and 0.1273 and 0.1374
1/v [1, 14]: 0.8901 and 1.007 and 0.9854
GUS activity (hydrolysis rate of MUG) [1, 14]: 0.2509 and 0.2218 and 0.2266
1/v [1, 15]: 0.5908 and 0.5953 and 0.5748
GUS activity (hydrolysis rate of MUG) [1, 15]: 0.3779 and 0.3751 and 0.3885
1/v [1, 16]: 0.423 and 0.431 and 0.4024
GUS activity (hydrolysis rate of MUG) [1, 16]: 0.5279 and 0.5181 and 0.5549
1/v [1, 17]: 3.2999 and 3.135 and 3.11
GUS activity (hydrolysis rate of MUG) [1, 17]: 0.06767 and 0.07122 and 0.07181
1/v [1, 18]: 1.905 and 1.744 and 1.761
GUS activity (hydrolysis rate of MUG) [1, 18]: 0.1172 and 0.128 and 0.1268
1/v [1, 19]: 0.9882 and 1.034 and 0.9748
GUS activity (hydrolysis rate of MUG) [1, 19]: 0.226 and 0.216 and 0.2291
1/v [1, 20]: 0.6379 and 0.6438 and 0.6305
GUS activity (hydrolysis rate of MUG) [1, 20]: 0.35 and 0.3468 and 0.3542
Ki [2]: 110 ± 33 nM
Ki [3]: 0.016 µM
Ki ([3]; 50 mM HEPES pH 7.5, 37 °C): 0.016 ± 0.002 µM
Ki ([3]; source data of Table 1, from plot of apparent Km against [inhibitor] (μM)): 0.0155 µM
Kd [4, 21]: 20 ± 2 nM
ΔG [4, 21]: –10.63 ± 0.075 kcal/mol
—TΔS [4, 21]: –1.51 ± 0.20 kcal/mol
Kd [4, 22]: 60 ± 1 nM
ΔG [4, 22]: –9.89 ± 0.01 kcal/mol
ΔH [4, 22]: –9.48 ± 0.29 kcal/mol
—TΔS [4, 22]: –0.41 ± 0.30 kcal/mol
